Inconclusive results and toxic doses are left out. Cut-off read from the data, not from the text of the source: active = T/C of 150% or more; inactive = T/C below 125%.
Test system: L1210 leukemia ip in BDF1 mice, survival T/C
Test: NCI In Vivo Anticancer Drug Screen. Data for tumor model L1210 Leukemia (intraperitoneal) in B6D2F1 (BDF1) mice
Conditions: endpoint: mean survival time, higher = longer survival
How it was run: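 Each compound was tested against a transplantable tumor grown in mice. The endpoint was survival, with treated animals benchmarked against vehicle controls as a simple ratio.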

[1] = dose: 100.0 mg/kg/injection, schedule: Q01DX009 (ip), vehicle: Klucel (hydroxypropylcellulose) (HPC)
[2] = dose: 200.0 mg/kg/injection, schedule: Q01DX009 (ip), vehicle: Klucel (hydroxypropylcellulose) (HPC)
[3] = dose: 400.0 mg/kg/injection, schedule: Q01DX009 (ip), vehicle: Klucel (hydroxypropylcellulose) (HPC)
[4] = dose: 100.0 mg/kg/injection, schedule: Q04DX003 (ip), vehicle: saline
[5] = dose: 200.0 mg/kg/injection, schedule: Q04DX003 (ip), vehicle: saline
[6] = dose: 400.0 mg/kg/injection, schedule: Q04DX003 (ip), vehicle: saline
[7] = dose: 100.0 mg/kg/injection, schedule: Q04DX002 (ip), vehicle: Klucel (hydroxypropylcellulose) (HPC)
[8] = dose: 200.0 mg/kg/injection, schedule: Q04DX002 (ip), vehicle: Klucel (hydroxypropylcellulose) (HPC)
[9] = dose: 100.0 mg/kg/injection, schedule: Q01DX009 (ip), vehicle: saline
[10] = dose: 200.0 mg/kg/injection, schedule: Q01DX009 (ip), vehicle: saline
[11] = dose: 400.0 mg/kg/injection, schedule: Q01DX009 (ip), vehicle: saline
[12] = dose: 100.0 mg/kg/injection, schedule: Q04DX003 (ip), vehicle: Klucel (hydroxypropylcellulose) (HPC)
[13] = dose: 200.0 mg/kg/injection, schedule: Q04DX003 (ip), vehicle: Klucel (hydroxypropylcellulose) (HPC)
[14] = dose: 100.0 mg/kg/injection, schedule: Q04DX002 (ip), vehicle: saline with Tween-80
[15] = dose: 200.0 mg/kg/injection, schedule: Q04DX002 (ip), vehicle: saline with Tween-80
[16] = dose: 400.0 mg/kg/injection, schedule: Q04DX002 (ip), vehicle: saline with Tween-80
[17] = dose: 100.0 mg/kg/injection, schedule: Q01DX009 (ip), vehicle: saline with Tween-80
[18] = dose: 200.0 mg/kg/injection, schedule: Q01DX009 (ip), vehicle: saline with Tween-80
[19] = dose: 100.0 mg/kg/injection, schedule: Q01DX001 (ip), vehicle: saline
[20] = dose: 200.0 mg/kg/injection, schedule: Q01DX001 (ip), vehicle: saline
[21] = dose: 400.0 mg/kg/injection, schedule: Q01DX001 (ip), vehicle: saline

Measured: T/C

O=C(Nc1ccccc1F)OC/C=C/c1ccccc1
inactive: [1] 104 % of control | [2] 97 % of control | [3] 95 % of control

CC(=O)Nc1c(Cl)c(Cl)c2c(c1Cl)Cc1cc(Cl)ccc1-2
inactive: dose: 100.0 mg/kg/injection, schedule: Q01DX009 (ip), vehicle: acetone 90 % of control | [4] 93 % of control | dose: 200.0 mg/kg/injection, schedule: Q01DX009 (ip), vehicle: acetone 93 % of control | [5] 91 % of control | dose: 400.0 mg/kg/injection, schedule: Q01DX009 (ip), vehicle: acetone 95 % of control | [6] 91 % of control

C[N+]1(C)CCS(=O)(=O)CC1
inactive: [7] 104 % of control | [8] 110 % of control

O=C(Nc1cccc(Cl)c1Cl)C(Cl)(Cl)Cl
inactive: [7] 100 % of control | [8] 104 % of control | dose: 400.0 mg/kg/injection, schedule: Q04DX002 (ip), vehicle: Klucel (hydroxypropylcellulose) (HPC) 88 % of control

O=C(CCCCC(=O)N/N=C\c1ccccn1)N/N=C\c1ccccn1
inactive: [9] 98 % of control | [4] 96 % of control | [10] 89 % of control | [5] 107 % of control | [11] 100 % of control | [6] 89 % of control

CC(C)(C)C(=O)CC(=O)C(C)(C)C.CC(C)(C)C(=O)CC(=O)C(C)(C)C.CC(C)(C)C(=O)CC(=O)C(C)(C)C.CC(C)(C)C(=O)CC(=O)C(C)(C)C.[Hf]
inactive: [1] 100 % of control | [12] 97 % of control | [2] 100 % of control | [13] 97 % of control | [3] 100 % of control | dose: 400.0 mg/kg/injection, schedule: Q04DX003 (ip), vehicle: Klucel (hydroxypropylcellulose) (HPC) 100 % of control

CCCCc1cn(S(=O)(=O)c2ccc(C)cc2)nn1
inactive: [14] 106 % of control | [15] 100 % of control | [16] 106 % of control

CC(=O)OCC(C)CC/C(=N\O)C(C)C1/C(=N/O)CC2C=C3CC(OC(C)=O)CCC3(C)CC21C (centres undefined)
inactive: dose: 50.0 mg/kg/injection, schedule: Q01DX009 (ip), vehicle: Klucel (hydroxypropylcellulose) (HPC) 97 % of control | [1] 91 % of control | [2] 91 % of control

O=C(c1ccccc1Br)N1CCN=C(c2ccccc2)C=C1c1ccccc1
inactive: [4] 93 % of control | [5] 94 % of control | [6] 100 % of control

O=S1(=O)CC=CC1
inactive: [4] 103 % of control | [5] 97 % of control | [6] 97 % of control

C=COC(=O)c1ccccc1
inactive: [17] 98 % of control | [14] 93 % of control | [18] 98 % of control | [15] 93 % of control | dose: 400.0 mg/kg/injection, schedule: Q01DX009 (ip), vehicle: saline with Tween-80 95 % of control | [16] 93 % of control

NC(=O)/C(=C\c1ccc([N+](=O)[O-])o1)c1ccccc1
inactive: dose: 100.0 mg/kg/injection, schedule: Q01DX001 (ip), vehicle: Klucel (hydroxypropylcellulose) (HPC) 96 % of control | dose: 200.0 mg/kg/injection, schedule: Q01DX001 (ip), vehicle: Klucel (hydroxypropylcellulose) (HPC) 93 % of control | dose: 400.0 mg/kg/injection, schedule: Q01DX001 (ip), vehicle: Klucel (hydroxypropylcellulose) (HPC) 96 % of control

CC(C)(CO)c1ccccc1
inactive: [19] 104 % of control | [20] 104 % of control | [21] 107 % of control

C(=N\N=c1\[nH][nH]/c(=N/N=C/c2ccc(-c3ccccc3)cc2)c2ccccc12)/c1ccc(-c2ccccc2)cc1
inactive: dose: 50.0 mg/kg/injection, schedule: Q01DX001 (ip), vehicle: saline 110 % of control | [19] 98 % of control | [20] 95 % of control | [21] 98 % of control

CCNC(C)(C)C(SSSC(c1ccc(Br)cc1)C(C)(C)NCC)c1ccc(Br)cc1 (centres undefined)
inactive: dose: 25.0 mg/kg/injection, schedule: Q01DX009 (ip), vehicle: water 96 % of control | dose: 50.0 mg/kg/injection, schedule: Q01DX009 (ip), vehicle: water 90 % of control | dose: 100.0 mg/kg/injection, schedule: Q01DX009 (ip), vehicle: water 88 % of control

CC(/C=N/N(C)C)=N\N(C)C
inactive: [4] 92 % of control | [5] 102 % of control

CC(C)(C)C1=C[P+](c2ccccc2)(c2ccccc2)C(C(C)(C)C)=C[P+]1(c1ccccc1)c1ccccc1
inactive: dose: 12.5 mg/kg/injection, schedule: Q01DX009 (ip), vehicle: saline 94 % of control | dose: 12.5 mg/kg/injection, schedule: Q04DX003 (ip), vehicle: saline 96 % of control | dose: 25.0 mg/kg/injection, schedule: Q01DX009 (ip), vehicle: saline 104 % of control | dose: 25.0 mg/kg/injection, schedule: Q04DX003 (ip), vehicle: saline 122 % of control | dose: 50.0 mg/kg/injection, schedule: Q01DX009 (ip), vehicle: saline 100 % of control | dose: 50.0 mg/kg/injection, schedule: Q04DX003 (ip), vehicle: saline 108 % of control

C[C@@H]1CC[C@@]2(NC1)O[C@H]1C[C@H]3[C@@H]4CC=C5C[C@@H](O)CC[C@]5(C)[C@H]4CC[C@]3(C)[C@H]1[C@@H]2C
inactive: dose: 5.0 mg/kg/injection, schedule: Q01DX Z (sc), vehicle: steriod suspending solution 91 % of control | dose: 10.0 mg/kg/injection, schedule: Q01DX Z (sc), vehicle: steriod suspending solution 100 % of control | dose: 20.0 mg/kg/injection, schedule: Q01DX Z (sc), vehicle: steriod suspending solution 96 % of control | dose: 40.0 mg/kg/injection, schedule: Q01DX Z (sc), vehicle: steriod suspending solution 98 % of control | dose: 50.0 mg/kg/injection, schedule: Q01DX009 (ip), vehicle: saline sonified 95 % of control | dose: 100.0 mg/kg/injection, schedule: Q01DX009 (ip), vehicle: saline sonified 94 % of control | [12] 94 % of control | dose: 200.0 mg/kg/injection, schedule: Q01DX009 (ip), vehicle: saline sonified 90 % of control | [13] 99 % of control

Cc1ccc(S(=O)(=O)N2CCc3ccccc3C(=O)C2Br)cc1 (centres undefined)
inactive: [9] 97 % of control | [10] 94 % of control | [11] 86 % of control

O=[N+]([O-])c1cc(Cl)ccc1N1CCCC1
inactive: [17] 89 % of control | [18] 99 % of control

CCOC(=O)C1C2CCCCC21 (centres undefined)
inactive: [19] 102 % of control | [20] 96 % of control

Cc1ccc(CC(=S)N2CCOCC2)cc1
inactive: dose: 100.0 mg/kg/injection, schedule: Q01DX001 (ip), vehicle: steriod suspending solution 95 % of control | dose: 200.0 mg/kg/injection, schedule: Q01DX001 (ip), vehicle: steriod suspending solution 98 % of control | dose: 400.0 mg/kg/injection, schedule: Q01DX001 (ip), vehicle: steriod suspending solution 96 % of control

Reference: PubChem BioAssay AID248 (DTP/NCI, 2004)
